Results: ChEMBL document CHEMBL2440027, “Further SAR studies on bicyclic basic merbarone analogues as potent antiproliferative agents” (Bioorg Med Chem, 2013)

What was measured:
Type in all cases: functional
OVCAR-8 = assay: Growth inhibition of human OVCAR8 cells assessed as cell growth at 10 uM after 48 hrs by sulforhodamine B assay relative to control; conditions: OVCAR-8, 48 h, read-out: Activity
UACC-62 [1] = assay: Growth inhibition of human UACC62 cells assessed as cell growth at 10 uM after 48 hrs by sulforhodamine B assay relative to control; conditions: UACC-62, 48 h, read-out: Activity
Malme-3M [2] = assay: Growth inhibition of human MALME-3M cells assessed as cell growth at 10 uM after 48 hrs by sulforhodamine B assay relative to control; conditions: read-out: Activity
SF-268 = assay: Growth inhibition of human SF268 cells after 48 hrs by sulforhodamine B assay; conditions: SF-268, 48 h
HOP-92 = assay: Growth inhibition of human HOP92 cells after 48 hrs by sulforhodamine B assay; conditions: HOP-92, 48 h
UACC-62 [3] = assay: Growth inhibition of human UACC62 cells after 48 hrs by sulforhodamine B assay; conditions: UACC-62, 48 h; for CC50: read-out: LC50 (the source's name)
HCT-116 = assay: Growth inhibition of human HCT116 cells after 48 hrs by sulforhodamine B assay; conditions: HCT-116, 48 h
BT-549 = assay: Growth inhibition of human BT549 cells after 48 hrs by sulforhodamine B assay; conditions: BT-549, 48 h; for CC50: read-out: LC50 (the source's name)
Malme-3M [4] = assay: Growth inhibition of human MALME-3M cells after 48 hrs by sulforhodamine B assay; conditions: for CC50: read-out: LC50 (the source's name)
SF-295 = assay: Growth inhibition of human SF295 cells after 48 hrs by sulforhodamine B assay; conditions: SF-295, 48 h; for CC50: read-out: LC50 (the source's name)
[5] = Growth inhibition of human NCI-ADR-RES cells assessed as cell growth at 10 uM after 48 hrs by sulforhodamine B assay relative to control; conditions: read-out: Activity
UO-31 [6] = assay: Growth inhibition of human UO31 cells assessed as cell growth at 10 uM after 48 hrs by sulforhodamine B assay relative to control; conditions: UO-31, 48 h, read-out: Activity
MDA-MB-468 = assay: Growth inhibition of human MDA-MB-468 cells assessed as cell growth at 10 uM after 48 hrs by sulforhodamine B assay relative to control; conditions: MDA-MB-468, 48 h, read-out: Activity
UACC-257 = assay: Growth inhibition of human UACC257 cells after 48 hrs by sulforhodamine B assay; conditions: UACC-257, 48 h; for CC50: read-out: LC50 (the source's name)
UO-31 [7] = assay: Growth inhibition of human UO31 cells after 48 hrs by sulforhodamine B assay; conditions: UO-31, 48 h
[8] = Growth inhibition of human HCC2998 cells assessed as cell growth at 10 uM after 48 hrs by sulforhodamine B assay relative to control; conditions: HCC 2998, 48 h, read-out: Activity
[9] = Growth inhibition of human Hs 578T cells after 48 hrs by sulforhodamine B assay; conditions: for CC50: read-out: LC50 (the source's name)
LOX IMVI [10] = assay: Growth inhibition of human LOXIMVI cells assessed as cell growth at 10 uM after 48 hrs by sulforhodamine B assay relative to control; conditions: read-out: Activity
NCI-H226 = assay: Growth inhibition of human NCI-H226 cells assessed as cell growth at 10 uM after 48 hrs by sulforhodamine B assay relative to control; conditions: NCI-H226, 48 h, read-out: Activity
OVCAR-5 [11] = assay: Growth inhibition of human OVCAR5 cells assessed as cell growth at 10 uM after 48 hrs by sulforhodamine B assay relative to control; conditions: OVCAR-5, 48 h, read-out: Activity
NCI-H23 = assay: Growth inhibition of human NCI-H23 cells assessed as cell growth at 10 uM after 48 hrs by sulforhodamine B assay relative to control; conditions: NCI-H23, 48 h, read-out: Activity
NCI-H460 = assay: Growth inhibition of human NCI-H460 cells assessed as cell growth at 10 uM after 48 hrs by sulforhodamine B assay relative to control; conditions: NCI-H460, 48 h, read-out: Activity
TK-10 = assay: Growth inhibition of human TK10 cells after 48 hrs by sulforhodamine B assay; conditions: TK-10, 48 h; for CC50: read-out: LC50 (the source's name)
CCRF-CEM = assay: Growth inhibition of human CCRF-CEM cells after 48 hrs by sulforhodamine B assay
OVCAR-5 [12] = assay: Growth inhibition of human OVCAR5 cells after 48 hrs by sulforhodamine B assay; conditions: OVCAR-5, 48 h; for CC50: read-out: LC50 (the source's name)
SR = assay: Growth inhibition of human SR cells after 48 hrs by sulforhodamine B assay
IGROV-1 [13] = assay: Growth inhibition of human IGROV1 cells after 48 hrs by sulforhodamine B assay; conditions: IGROV-1, 48 h; for CC50: read-out: LC50 (the source's name)
ACHN [14] = assay: Growth inhibition of human ACHN cells assessed as cell growth at 10 uM after 48 hrs by sulforhodamine B assay relative to control; conditions: read-out: Activity
MCF7 = assay: Growth inhibition of human MCF7 cells after 48 hrs by sulforhodamine B assay; conditions: MCF7, 48 h; for CC50: read-out: LC50 (the source's name)
IGROV-1 [15] = assay: Growth inhibition of human IGROV1 cells assessed as cell growth at 10 uM after 48 hrs by sulforhodamine B assay relative to control; conditions: IGROV-1, 48 h, read-out: Activity
M14 = assay: Growth inhibition of human M14 cells after 48 hrs by sulforhodamine B assay; conditions: M14, 48 h; for CC50: read-out: LC50 (the source's name)
A549 = assay: Growth inhibition of human A549/ATCC cells after 48 hrs by sulforhodamine B assay; conditions: A549, 48 h
ACHN [16] = assay: Growth inhibition of human ACHN cells after 48 hrs by sulforhodamine B assay
LOX IMVI [17] = assay: Growth inhibition of human LOXIMVI cells after 48 hrs by sulforhodamine B assay

## CN(C)CCNc1nc2c(c(=N)n1-c1ccccc1)c(=S)n(-c1ccccc1)c(=S)n2-c1ccccc1
OVCAR-8
  growth at 10 µM: 33.6%
UACC-62 [1]
  growth at 10 µM: -90.3%
Malme-3M [2]
  growth at 10 µM: -89.5%
SF-268
  GI50: 4.1 µM
  LC50: 45.6 µM
  TGI: 15.3 µM
HOP-92
  GI50: 1.8 µM
  LC50 (concentration killing 50% of cells): 60.1 µM
  TGI: 10.3 µM
UACC-62 [3]
  GI50: 1.8 µM
  TGI: 3.5 µM
  CC50: 6.6 µM
HCT-116
  GI50: 2.7 µM
  TGI: 16 µM
BT-549
  GI50: 5.3 µM
  TGI: 21.3 µM
  CC50: 62.1 µM
Malme-3M [4]
  GI50: 2.6 µM
  TGI: 5 µM
  CC50: 9.5 µM
SF-295
  GI50: 2.9 µM
  TGI: 8.3 µM
  CC50: 51.1 µM
[5]
  growth at 10 µM: 58.8%
UO-31 [6]
  growth at 10 µM: 3.1%
MDA-MB-468
  growth at 10 µM: -34.6%
UACC-257
  GI50: 1.7 µM
  TGI: 3.6 µM
  CC50: 7.5 µM
UO-31 [7]
  GI50: 1.6 µM
  LC50: 9.6 µM
  TGI: 3.9 µM
[8]
  growth at 10 µM: -39.6%
[9]
  GI50: 2.3 µM
  TGI: 7.7 µM
  CC50: 40 µM
LOX IMVI [10]
  growth at 10 µM: -61.4%
NCI-H226
  growth at 10 µM: 82.3%
OVCAR-5 [11]
  growth at 10 µM: 63.1%
NCI-H23
  growth at 10 µM: 67.6%
NCI-H460
  growth at 10 µM: 3.8%
TK-10
  GI50: 3.5 µM
  TGI: 14.3 µM
  CC50: 48.8 µM
CCRF-CEM
  GI50: 1.4 µM
  LC50: 9.2 µM
  TGI: 3.6 µM
OVCAR-5 [12]
  GI50: 12.1 µM
  TGI: 29.5 µM
  CC50: 72.1 µM
SR
  GI50: 1.4 µM
  LC50: 8.2 µM
  TGI: 3.3 µM
IGROV-1 [13]
  GI50: 8.1 µM
  TGI: 23 µM
  CC50: 57.5 µM
ACHN [14]
  growth at 10 µM: 28.3%
MCF7
  GI50: 2.2 µM
  TGI: 10.9 µM
  CC50: 48.8 µM
IGROV-1 [15]
  growth at 10 µM: 36.3%
M14
  GI50: 1.8 µM
  TGI: 4.3 µM
  CC50: 89.1 µM
A549
  GI50: 4.1 µM
  LC50: 70.4 µM
  TGI: 18.6 µM
ACHN [16]
  GI50: 3.2 µM
  LC50: 34.1 µM
  TGI: 11.3 µM
LOX IMVI [17]
  GI50: 1.4 µM
  LC50 (concentration killing 50% of cells): 5.3 µM
  TGI: 2.7 µM

## CCCCN(CCCC)CCCNc1nc2c(c(=N)n1-c1ccccc1)c(=S)n(-c1ccccc1)c(=S)n2-c1ccccc1
OVCAR-8
  growth at 10 µM: -36.1%
UACC-62 [1]
  growth at 10 µM: -99.4%
Malme-3M [2]
  growth at 10 µM: -91.5%
SF-268
  GI50: 1 µM
  LC50: 4.7 µM
  TGI: 2.2 µM
HOP-92
  GI50: 0.2 µM
  LC50 (concentration killing 50% of cells): 3.5 µM
  TGI: 0.8 µM
UACC-62 [3]
  GI50: 0.3 µM
  TGI: 1.2 µM
  CC50: 3.5 µM
HCT-116
  GI50: 0.3 µM
  TGI: 1.1 µM
HCT-116; read-out: LC50 (the source's name)
  CC50: 3.4 µM
BT-549
  GI50: 1.5 µM
  TGI: 3.2 µM
  CC50: 6.7 µM
Malme-3M [4]
  GI50: 0.2 µM
  TGI: 0.5 µM
  CC50: 1.5 µM
SF-295
  GI50: 1.2 µM
  TGI: 2.7 µM
  CC50: 5.8 µM
[5]
  growth at 10 µM: -71.1%
UO-31 [6]
  growth at 10 µM: -80.9%
MDA-MB-468
  growth at 10 µM: -89.9%
UACC-257
  GI50: 0.2 µM
  TGI: 0.4 µM
  CC50: 0.9 µM
UO-31 [7]
  GI50: 0.2 µM
  LC50: 1.1 µM
  TGI: 0.5 µM
[8]
  growth at 10 µM: -91.5%
[9]
  GI50: 0.5 µM
  TGI: 1.9 µM
  CC50: 5.5 µM
LOX IMVI [10]
  growth at 10 µM: -89.7%
NCI-H226
  growth at 10 µM: -82.5%
OVCAR-5 [11]
  growth at 10 µM: -60.2%
NCI-H23
  growth at 10 µM: -56.3%
NCI-H460
  growth at 10 µM: -95.7%
TK-10
  GI50: 1.3 µM
  TGI: 2.7 µM
  CC50: 5.6 µM
CCRF-CEM
  GI50: 0.1 µM
  LC50: 0.6 µM
  TGI: 0.3 µM
OVCAR-5 [12]
  GI50: 1.4 µM
  TGI: 2.8 µM
  CC50: 5.5 µM
SR
  GI50: 0.3 µM
  LC50: 7 µM
  TGI: 1.5 µM
IGROV-1 [13]
  GI50: 1.9 µM
  TGI: 3.8 µM
  CC50: 7.5 µM
ACHN [14]
  growth at 10 µM: -95.8%
MCF7
  GI50: 0.3 µM
  TGI: 1.3 µM
  CC50: 3.6 µM
IGROV-1 [15]
  growth at 10 µM: -70.9%
M14
  GI50: 0.2 µM
  TGI: 0.4 µM
  CC50: 0.8 µM
A549
  GI50: 0.7 µM
  LC50: 8.3 µM
  TGI: 2.4 µM
ACHN [16]
  GI50: 0.5 µM
  LC50: 4.1 µM
  TGI: 1.6 µM
LOX IMVI [17]
  GI50: 0.2 µM
  LC50 (concentration killing 50% of cells): 0.6 µM
  TGI: 0.3 µM
